One data set concerns poly(A) template. Put plainly: poly(U) synthesis assay using a poly(A) template. The data set is classed as biochemical. The settings on record: described reaction conditions. The method, then:
(§1) Assay conditions for r-HCV-RDRP activity: The preferred conditions for assaying RDRP activity are described. The alternative conditions are operative, and designated as alternatives, in parentheses. Incubations were carried out 20 or 50 μl in final volumes that contain: 20-50 mM HEPES-pH 8.0 (alternative is 20 mM Tris-HCl;pH 7.5); 1.5-5 mM MnCl2; 100 mM ammonium acetate; 1-4 mM dithiothreitol (DDT), 500 μM each ATP, CTP, and GTP (alternative: 500 μM GTP and 250 μM each ATP and CTP); 10 μM UTP; 1-20 μCi of [α-^33P]UTP (alternative is to use [α-^32P]UTP or [^3H]UTP), 10-20 U of RNasin; and rHCV-RDRP protein. […]
(§2) Labeled nucleotides incorporated into RNA are precipitated by TCA. The precipitates are collected, washed and counted, e.g. in a scintillation counter to measure the quantity of RNA synthesized in the enzyme reaction. […] [^3H]poly(U) was quantitated by liquid scintillation spectrometry (LKB 1218 RackBeta). The synthesized RNA can also be analyzed by gel electrophoresis to determine the size of the synthesized RNA chains. For gel analysis the reaction mixture is inactivated with 100 μl of proteinase K buffer; digested with proteinase K, processed and the RNA products are analyzed by formaldehyde/agarose gel electrophoresis or 6% denaturing polyacrylamide-7 M urea gel electrophoresis.

Data set [1] in a line: isoelectric point of the enzyme. The data set is classed as physicochemical.
The nature of data set [2]: RNA synthesis by r-HCV-RDRP in vitro, Mg++ dependence. Format: biochemical. The method, then:
Both reactions were >90% primer-dependent under the described reaction conditions.
Assay conditions for r-HCV-RDRP activity: The preferred conditions for assaying RDRP activity are described. The alternative conditions are operative, and designated as alternatives, in parentheses. Incubations were carried out 20 or 50 μl in final volumes that contain: 20-50 mM HEPES-pH 8.0 (alternative is 20 mM Tris-HCl;pH 7.5); 1.5-5 mM MnCl2; 100 mM ammonium acetate; 1-4 mM dithiothreitol (DDT), 500 μM each ATP, CTP, and GTP (alternative: 500 μM GTP and 250 μM each ATP and CTP); 10 μM UTP; 1-20 μCi of [α-^33P]UTP (alternative is to use [α-^32P]UTP or [^3H]UTP), 10-20 U of RNasin; and rHCV-RDRP protein. Templates: 500-1000 ng of a preferred heteropolymeric template (e.g., either a 98 nt 3′-end of HCV genomic RNA or HCV RNA that included both the 5′ and 3′ ends of genomic or negative stranded HCV RNA) per 50 μl incubation; (as an alternative template, poly(A)/oligo(U) on either 20 μg/ml poly(A)460-600, and 10 μg/ml oligo (U)5-25 (or 0.8 μg of 10:1 mix of poly(A)/oligo(U) per 50 μl incubation can be employed). If the enzyme preparation is not >90-95 % pure include 50 μg/ml of actinomycin D. Incubations are for 15-120 min at 30° C. (or 22° C.). Note: stop incubations by adding 100 mM EDTA and then process for trichloroacetic acid (TCA) precipitation.

The test system of a further data set is globin mRNA template. Put plainly: RNA synthesis assay using a globin mRNA template. Format: biochemical. The settings on record: described reaction conditions. The method, then:
as §1, §2

Some results are limits rather than exact numbers.

Consider one substance from patent US6461845B1, “Recombinant hepatitis C virus RNA replicase” (Emory University, priority 1995, dated 2002).

“r-HCV-RDRP: Modified recombinant HCV RNA-dependent RNA polymerase (NS5B, type 1a) with N-terminal Met-Ala dipeptide, expressed in E. coli”: the “primer dependence of poly(U) synthesis” value in the data set with poly(A) template was over 90%. Further, the isoelectric point result in data set [1] was “approximately 8.8”. Further, in data set [2], the “Mg++ concentration giving maximal activity” value is listed as “about 20 mM”. Besides, the “activity in the absence of Mg++” value in data set [2] (no Mg++) is “no detectable activity”. For the same substance, the “primer dependence of RNA synthesis” value with globin mRNA template is over 90%.
